Legend:
F508del-CFTR = target: T1, F508del-CFTR (Homo sapiens, UniProt P13569, DEL508-508); test: Membrane potential optical (FLIPR) assay for F508del-CFTR modulators in NIH 3T3 cells; type: cell-based; details: NIH 3T3 cells expressing F508del; assay A1; read-out: CFTRdF508 Cor 3T3 FLIPR 384 CFTRdF508 MP 3T3 770 EC50
T1 construct: expressed in transfected cells
Source text: Membrane Potential Optical Methods for Assaying Properties of F508del-CFTR Modulators
The assay utilizes fluorescent voltage sensing dyes to measure changes in membrane potential using a fluorescent plate reader (e.g., FLIPR III, Molecular Devices, Inc.) as a readout for increase in functional F508del in NIH 3T3 cells. The driving force for the response is the creation of a chloride ion gradient in conjunction with channel activation and concurrent with compound treatment by a single liquid addition step after the cells have previously been loaded with a voltage sensing dye.
A1. Identification of F508del-CFTR Modulators
To identify modulators of F508del, a fluorescence based HTS assay format was developed. This HTS assay utilizes fluorescent voltage sensing dyes to measure changes in membrane potential on the FLIPR III as a measurement for increase in gating (conductance) of F508del NIH 3T3 cells. The driving force for the response is the creation of a chloride ion gradient in conjunction with channel activation and concurrent with compound treatment by a single liquid addition step after the cells have previously been loaded with a voltage sensing dye.
Bath Solution #1: (in mM) NaCl 160, KCl 4.5, CaCl2 2, MgCl2 1, HEPES 10, pH 7.4 with NaOH, Glucose 10.
Chloride-free bath solution: Chloride salts in Bath Solution #1 (above) are substituted with gluconate salts.
NIH3T3 mouse fibroblasts stably expressing F508del were used for optical measurements of membrane potential. The cells were maintained at 37° C. in 5% CO2 and 90% humidity in Dulbecco's modified Eagle's medium supplemented with 2 mM glutamine, 10% fetal bovine serum, 1×NEAA, β-ME, 1× pen/strep, and 25 mM HEPES in 175 cm^2 culture flasks. For all optical assays, the cells were seeded at 12,000 cells/well in 384-well matrigel-coated plates and cultured for 18-24 hrs at 37° C. for the potentiator assay. For the correction assay, the cells were cultured at 37° C. with and without compounds for 18-24 hours.

human PXR = target: T2, human PXR (Homo sapiens, UniProt O75469); test: PXR assay: PXR mediated CYP3A4 induction in DPX-2 cell line; type: cell-based; details: DPX-2 cells
T2 construct: host or cells: DPX-2 cell line (derived from HepG2)
T2 sequence (O75469 1-434): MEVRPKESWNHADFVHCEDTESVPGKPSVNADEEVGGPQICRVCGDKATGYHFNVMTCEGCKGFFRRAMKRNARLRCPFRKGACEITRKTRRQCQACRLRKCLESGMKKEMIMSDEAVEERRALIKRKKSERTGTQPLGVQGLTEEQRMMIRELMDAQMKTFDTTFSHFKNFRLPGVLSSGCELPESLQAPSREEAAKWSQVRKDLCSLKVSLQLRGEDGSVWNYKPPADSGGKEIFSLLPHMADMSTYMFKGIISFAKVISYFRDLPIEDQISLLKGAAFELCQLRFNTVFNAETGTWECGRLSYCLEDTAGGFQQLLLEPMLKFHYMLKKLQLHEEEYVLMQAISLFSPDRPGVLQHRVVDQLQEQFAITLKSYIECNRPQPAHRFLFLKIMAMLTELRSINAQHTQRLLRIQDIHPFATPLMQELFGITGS
Experimental: D. Experimental Protocol for PXR Assay
The propensity for PXR mediated CYP3A4 induction is assessed using the DPX-2 cell line in vitro. This cell line, which has been licensed from Puracyp Inc. was derived from HepG2 cells and has been stably transfected with genes encoding human PXR as well as a modified luciferase reporter linked to the CYP3A4 promoter region and related distal and proximal enhancers.
The assay is run in 384 well format and each test article is administered in 11 doses ranging from 0.1 to 60 μM. On day 1, DPX-2 cells which have previously been expanded in-house and cryopreserved are thawed and seeded in tissue culture plates. The following day, media is changed and cells are cultured in media containing test article, vehicle control or the positive control compound, the clinically validated CYP3A4 inducer rifampicin. Cells are cultured in the presence of test article for 48 hours and then cell viability is assessed using fluorescence based assay (Cell Titer-Fluor, Promega) with an EnVision Plate Reader (PerkinElmer). Subsequently, CYP3A4 transactivation, which is proportional to luciferase activity, is measured by reading luminescense using the Promega One-Glo reagent system using the same plate reader.
Data processing within the Genedata software package allows reporting of max fold induction compared to vehicle control, an EC50 value for CYP3A4 inducers and an 11 point-dose response curve.

T1 sequence (P13569 with tags, fused parts or gaps DEL508-508): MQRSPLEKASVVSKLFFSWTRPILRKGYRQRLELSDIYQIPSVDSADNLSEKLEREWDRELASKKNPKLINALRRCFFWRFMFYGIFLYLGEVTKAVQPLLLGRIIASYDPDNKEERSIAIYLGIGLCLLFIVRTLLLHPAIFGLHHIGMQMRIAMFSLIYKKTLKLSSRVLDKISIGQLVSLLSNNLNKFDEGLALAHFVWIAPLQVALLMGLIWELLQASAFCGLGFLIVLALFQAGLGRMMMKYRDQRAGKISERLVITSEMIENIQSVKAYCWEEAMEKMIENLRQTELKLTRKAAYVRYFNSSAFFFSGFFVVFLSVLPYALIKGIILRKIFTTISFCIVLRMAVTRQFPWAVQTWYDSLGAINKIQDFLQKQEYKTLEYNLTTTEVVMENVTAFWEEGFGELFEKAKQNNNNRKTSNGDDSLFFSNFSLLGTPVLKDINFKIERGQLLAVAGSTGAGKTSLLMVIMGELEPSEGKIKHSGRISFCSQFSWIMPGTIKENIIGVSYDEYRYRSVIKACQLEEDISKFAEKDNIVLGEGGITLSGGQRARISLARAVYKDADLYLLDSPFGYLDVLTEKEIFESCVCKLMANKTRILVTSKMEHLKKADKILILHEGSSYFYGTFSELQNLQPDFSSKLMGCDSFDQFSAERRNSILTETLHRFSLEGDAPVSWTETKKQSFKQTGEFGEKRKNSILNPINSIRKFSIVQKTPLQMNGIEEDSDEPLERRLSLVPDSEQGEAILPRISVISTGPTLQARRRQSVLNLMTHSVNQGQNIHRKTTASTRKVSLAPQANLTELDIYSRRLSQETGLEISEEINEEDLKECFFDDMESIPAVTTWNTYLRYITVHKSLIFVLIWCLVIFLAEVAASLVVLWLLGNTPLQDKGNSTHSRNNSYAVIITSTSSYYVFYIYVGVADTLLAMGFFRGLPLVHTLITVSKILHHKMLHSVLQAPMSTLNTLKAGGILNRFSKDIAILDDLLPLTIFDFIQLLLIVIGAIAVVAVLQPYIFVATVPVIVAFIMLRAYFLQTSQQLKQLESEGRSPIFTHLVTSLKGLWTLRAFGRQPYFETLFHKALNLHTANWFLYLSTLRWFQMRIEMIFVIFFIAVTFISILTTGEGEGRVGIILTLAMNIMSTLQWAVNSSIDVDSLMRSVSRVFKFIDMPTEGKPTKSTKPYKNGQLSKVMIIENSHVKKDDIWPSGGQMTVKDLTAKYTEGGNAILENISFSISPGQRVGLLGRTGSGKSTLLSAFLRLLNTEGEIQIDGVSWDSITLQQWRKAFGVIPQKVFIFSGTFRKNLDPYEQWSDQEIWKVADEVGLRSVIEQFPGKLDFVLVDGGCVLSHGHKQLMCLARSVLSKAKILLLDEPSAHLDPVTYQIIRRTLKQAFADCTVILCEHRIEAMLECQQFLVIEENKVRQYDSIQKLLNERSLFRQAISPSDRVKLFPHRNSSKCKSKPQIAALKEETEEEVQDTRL

EC50 (F508del-CFTR) [nM]	CYP3A4 Induction-PXR human PXR internal Max % Activity (human PXR) [%]	SMILES
110		[2H]C([2H])([2H])[C@@H]1CN(c2nc(-n3ccc(OCC(C)(C)C(F)(F)F)n3)ccc2C(=O)NS(=O)(=O)c2cn(C)nc2C)C(C)(C)C1([2H])[2H] [Compound 29, (S)—N-((1,3-dimethyl-1H-pyrazol-4-yl)sulfonyl)-2-(2,2-dimethyl-4-(methyl-d3)pyrrolidin-1-yl-3,3-d2)-6-(3-(3,3,3-trifluoro-2,2-dimethylpropoxy)-1H-pyrazol-1-yl)nicotinamide]
190		CCC1CN(c2nc(-n3ccc(OCC4(C(F)(F)F)CC4)n3)ccc2C(=O)NS(=O)(=O)c2cn(C)nc2C)C(C)(C)C1 (centres unmarked) [Compound 49, N-(1,3-dimethylpyrazol-4-yl)sulfonyl-2-(4-ethyl-2,2-dimethyl-pyrrolidin-1-yl)-6-[3-[[1-(trifluoromethyl)cyclopropyl]methoxy]pyrazol-1-yl]pyridine-3-carboxamide]
710	6	Cc1c(S(=O)(=O)NC(=O)c2ccc(-n3ccc(OCC4(C)CC4(F)F)n3)nc2N2C[C@@H](C)CC2(C)C)cnn1C (stereo partly drawn) [Compound 24, 6-[3-[(2,2-Difluoro-1-methyl-cyclopropyl)methoxy]pyrazol-1-yl]-N-(1,5-dimethylpyrazol-4-yl)sulfonyl-2-[(4S)-2,2,4-trimethylpyrrolidin-1-yl]pyridine-3-carboxamide]
120	4	Cc1nn(C)cc1S(=O)(=O)NC(=O)c1ccc(-n2ccc(OCC3(C(F)(F)F)CC3)n2)nc1N1CC(C(C)C)CC1(C)C (racemic) [Compound 41, N-(1,3-dimethylpyrazol-4-yl)sulfonyl-2-(4-isopropyl-2,2-dimethyl-pyrrolidin-1-yl)-6-[3-[[1-(trifluoromethyl)cyclopropyl]methoxy]pyrazol-1-yl]pyridine-3-carboxamide]
100	9	C[C@@H]1CN(c2nc(-n3ccc(OCCC4(C(F)(F)F)CC4)n3)ccc2C(=O)NS(=O)(=O)c2cn(C)nc2C(F)(F)F)C(C)(C)C1 [Compound 55, N-[1-methyl-3-(trifluoromethyl)pyrazol-4-yl]sulfonyl-6-[3-[2-[1-(trifluoromethyl)cyclopropyl]ethoxy]pyrazol-1-yl]-2-[(4S)-2,2,4-trimethylpyrrolidin-1-yl]pyridine-3-carboxamide]
390		Cc1nn(C)cc1S(=O)(=O)NC(=O)c1ccc(-n2ccc(OCC3(C(F)(F)F)CC3)n2)nc1N1CC(C)CC12CC2 (centres unmarked) [Compound 44, N-(1,3-dimethylpyrazol-4-yl)sulfonyl-2-(6-methyl-4-azaspiro[2.4]heptan-4-yl)-6-[3-[[1-(trifluoromethyl)cyclopropyl]methoxy]pyrazol-1-yl]pyridine-3-carboxamide]
610	16	Cc1nn(C)cc1S(=O)(=O)NC(=O)c1ccc(-n2ccc(OCC3(C(F)(F)F)CC3)n2)nc1N1CC(C)CC1(C)C (centres unmarked) [Compound 42, N-(1,3-dimethylpyrazol-4-yl)sulfonyl-6-[3-[[1-(trifluoromethyl)cyclopropyl]methoxy]pyrazol-1-yl]-2-(2,2,4-trimethylpyrrolidin-1-yl)pyridine-3-carboxamide]
2100		C[C@@H]1CN(c2nc(-n3ccc(OC4CC4)n3)ccc2C(=O)NS(=O)(=O)c2cnn(C)c2)C(C)(C)C1 [Compound 22, 6-[3-(Cyclopropoxy)pyrazol-1-yl]-N-(1-methylpyrazol-4-yl)sulfonyl-2-[(4S)-2,2,4-trimethylpyrrolidin-1-yl]pyridine-3-carboxamide]
390	7	Cc1nn(C)cc1S(=O)(=O)NC(=O)c1ccc(-n2ccc(OCC3(C(F)(F)F)CC3)n2)nc1N1CC(C(C)(C)C)CC1(C)C (single isomer, unassigned) [Compound 53, 2-(4-tert-butyl-2,2-dimethyl-pyrrolidin-1-yl)-N-(1,3-dimethylpyrazol-4-yl)sulfonyl-6-[3-[[1-(trifluoromethyl)cyclopropyl]methoxy]pyrazol-1-yl]pyridine-3-carboxamide]
370	5	Cc1c(S(=O)(=O)NC(=O)c2ccc(-n3ccc(OCC(C4CC4)C4CC4)n3)nc2N2C[C@@H](C)CC2(C)C)cnn1C [Compound 33, 6-[3-(2,2-dicyclopropylethoxy)pyrazol-1-yl]-N-(1,5-dimethylpyrazol-4-yl)sulfonyl-2-[(4S)-2,2,4-trimethylpyrrolidin-1-yl]pyridine-3-carboxamide]
	11	Cc1nn(C)cc1S(=O)(=O)NC(=O)c1ccc(-n2ccc(OCCC3C4(CC4)C34CC4)n2)nc1N1C[C@@H](C)CC1(C)C [Compound 56, N-(1,3-Dimethylpyrazol-4-yl)sulfonyl-6-[3-(2-dispiro[2.0.2.1]heptan-7-ylethoxy)pyrazol-1-yl]-2-[(4S)-2,2,4-trimethylpyrrolidin-1-yl]pyridine-3-carboxamide]
60		Cc1nn(C)cc1S(=O)(=O)NC(=O)c1ccc(-n2ccc(OCC3(C(F)(F)F)CC3)n2)nc1N1C[C@@H](C(C)C)CC1(C)C (single isomer, unassigned) [Compound 47, N-(1,3-dimethylpyrazol-4-yl)sulfonyl-2-(4-isopropyl-2,2-dimethyl-pyrrolidin-1-yl)-6-[3-[[1-(trifluoromethyl)cyclopropyl]methoxy]pyrazol-1-yl]pyridine-3-carboxamide]
390		Cc1nn(C)cc1S(=O)(=O)NC(=O)c1ccc(-n2ccc(OCC3(C(F)(F)F)CC3)n2)nc1N1C[C@@H](C(C)C)CC1(C)C (single isomer, unassigned) [Compound 46, N-(1,3-dimethylpyrazol-4-yl)sulfonyl-2-(4-isopropyl-2,2-dimethyl-pyrrolidin-1-yl)-6-[3-[[1-(trifluoromethyl)cyclopropyl]methoxy]pyrazol-1-yl]pyridine-3-carboxamide]
80	13	Cc1nn(C)cc1S(=O)(=O)NC(=O)c1ccc(-n2ccc(OCC3(C(F)(F)F)CC3)n2)nc1N1CC(C(C)(C)C)CC1(C)C (racemic) [Compound 40, 2-(4-tert-Butyl-2,2-dimethyl-pyrrolidin-1-yl)-N-(1,3-dimethylpyrazol-4-yl)sulfonyl-6-[3-[[1-(trifluoromethyl)cyclopropyl]methoxy]pyrazol-1-yl]pyridine-3-carboxamide]

SMILES	EC50 (F508del-CFTR) [nM]	CYP3A4 Induction-PXR human PXR internal Max % Activity (human PXR) [%]
Cc1nn(C)cc1S(=O)(=O)NC(=O)c1ccc(-n2ccc(OCC3(C(F)(F)F)CC3)n2)nc1N1CC(C)CC12CCC2 (centres unmarked) [Compound 43, N-(1,3-dimethylpyrazol-4-yl)sulfonyl-2-(7-methyl-5-azaspiro[3.4]octan-5-yl)-6-[3-[[1-(trifluoromethyl)cyclopropyl]methoxy]pyrazol-1-yl]pyridine-3-carboxamide]	220	4
